Assay results taken from the NIST ThermoML archive (doi:10.1021/je900525f).

Legend:
[1] = 101 kPa, Liquid; for viscosity: Capillary tube (Ostwald / Ubbelohde) method; for speed of sound: Pulse-echo method
[2] = xn = mol fraction of the nth substance listed; conditions: 101 kPa, Liquid; for viscosity: Capillary tube (Ostwald / Ubbelohde) method; for speed of sound: Pulse-echo method

CCOC(=O)CCl [ethyl chloroethanoate]
[1]
Conditions | mass density [kg/m3] | speed of sound [m/s] | viscosity [mPa·s]
303.15 K | 1139.3 | 1229.4 | 0.9692
308.15 K | 1132.5 | 1212.4 | 0.8979
313.15 K | 1125.9 | 1197.6 | 0.8341

N#CCc1ccccc1 [benzeneacetonitrile] + CCOC(=O)CCl
[2], x1 = 1
Conditions | mass density [kg/m3] | speed of sound [m/s] | viscosity [mPa·s]
303.15 K | 1008.8 | 1519.2 | 1.761
308.15 K | 1004.1 | 1512.9 | 1.602
313.15 K | 999.5 | 1503.4 | 1.489

N#CCc1ccccc1 [benzeneacetonitrile] + CCOC(=O)CC#N
[2], x1 = 1
Conditions | mass density [kg/m3] | speed of sound [m/s] | viscosity [mPa·s]
303.15 K | 1008.8 | 1519.2 | 1.761
308.15 K | 1004.1 | 1512.9 | 1.602
313.15 K | 999.5 | 1503.4 | 1.489

CCOC(C)=O [ethyl acetate]
[1]
Conditions | mass density [kg/m3] | speed of sound [m/s] | viscosity [mPa·s]
303.15 K | 888.9 | 1118.5 | 0.379
308.15 K | 882.6 | 1097.8 | 0.361
313.15 K | 875.9 | 1081.2 | 0.344

N#CCc1ccccc1 [benzeneacetonitrile]
[1]
Conditions | mass density [kg/m3] | speed of sound [m/s] | viscosity [mPa·s]
303.15 K | 1008.8 | 1519.2 | 1.761
308.15 K | 1004.1 | 1512.9 | 1.602
313.15 K | 999.5 | 1503.4 | 1.489

CCOC(=O)CC#N [ethyl cyanoacetate]
[1]
Conditions | mass density [kg/m3] | speed of sound [m/s] | viscosity [mPa·s]
303.15 K | 1051.4 | 1396.9 | 2.186
308.15 K | 1046.5 | 1384.8 | 1.962
313.15 K | 1040.8 | 1367.7 | 1.77

CCOC(C)=O [ethyl acetate] + N#CCc1ccccc1
[2], x2 = 0
Conditions | mass density [kg/m3] | speed of sound [m/s] | viscosity [mPa·s]
303.15 K | 888.9 | 1118.5 | 0.379
308.15 K | 882.6 | 1097.8 | 0.361
313.15 K | 875.9 | 1081.2 | 0.344
